Data from patent publication US20230312587A1, “PTERIDINONE COMPOUNDS AND USES THEREOF” (Vertex Pharmaceutical Incorporated, priority 2018, published 2023).

The molecules below were run on β-catenin-TCF-mediated reporter transcription activity in Colo 205 cells (assay: Colo 205 reporter assay (TCF/LEF luciferase)). Conditions: Colo 205 TCF/LEF luciferase reporter, five hours after addition of compound; read-out: TCF reporter Colo205 IC50.
Format: cell-based
Description: The compounds of the invention described herein were screened using the assay procedure for β-catenin-TCF-mediated reporter transcription activity described below.
Reporter cell lines were generated by stably transfecting cells of cancer cell lines (e.g., colon cancer) with a plasmid reporter construct (From SABiosciences, a QIAGEN company) that includes TCF/LEF promoter driving expression of the firefly luciferase gene. TCF/LEF reporter constructs were made in which TCF/LEF promoter, a promoter with optimal number of TCF/LEF binding sites designed by SABiosceinces, was linked upstream of the firefly luciferase gene. This construct could also include a puromycin resistance gene as a selectable marker. This construct could also be used to stably transfect Colo 205 cells, a colon cancer cell line having a mutated APC gene that causes a constitutively active β-catenin. A control cell line was generated using another plasmid construct containing the luciferase gene under the control of a CMV basal promoter which is not activated by p-catenin.
Colo 205 Cultured cells with a stably transfected reporter construct were plated at approximately 10,000 cells per well into 384 well multi-well plates for twenty four hours. The testing compounds were then added to the wells in 2-fold serial dilutions using a twenty micromolar top concentration. A series of control wells for each cell type received only compound solvent. Five hours after the addition of compound, reporter activity for luciferase was assayed, by addition of the SteadyGlo luminescence reagent (Promega). The reporter luminescence activity was measured using Pherastar plate reader (BMG Labtech). Readings were normalized to DMSO only treated cells, and normalized activities were then used in the IC50 calculations. The Colo 205 reporter assay data are summarized in Table 45: A<0.3 μM; 0.3 μM≤B<1.0 μM; 1.0 μM≤C<5.0 μM; D≥5.0 μM
Colo 205 reporter assay data has also been obtained for certain R-isomers of Formula (I) wherein R^4 is —H or -D, and wherein the carbon to which R^3 and R^4 are attached (C2 carbon of Formula (X)) has R stereochemistry; such epimeric compounds are represented using the suffix “B” attached to the Compound described herein having the S stereochemistry at the carbon to which R^3 and R^4 are attached: […]

SMILES	IC50
Cc1nc(NCc2cnn(Cc3cccnc3C(F)(F)F)c2)nc2c1NC(=O)[C@H](C)N2C [Compound 183]	< 300 nM

Same assay, conditions: Homo sapiens, COLO 205, 5 h, Colo 205 TCF/LEF luciferase reporter, five hours after addition of compound; read-out: TCF reporter Colo205 IC50

SMILES	IC50
COc1ccc(O[C@H]2C[C@H](Nc3nc(C)c4c(n3)N(C)[C@@H](C)C(=O)N4C)C2)cc1F [Compound 351, (7S)-2-((trans-3-(3-fluoro-4-methoxyphenoxy)cyclobutyl)amino)-4,5,7,8-tetramethyl-7,8-dihydropteridin-6(5H)-one]	1000 to 5000 nM
Cc1nc(N[C@H]2CCc3nn(Cc4ccc(C(F)(F)F)nc4)cc32)nc2c1NC(=O)[C@H](C)N2C [Compound 546, (7S)-4,7,8-trimethyl-2-(((S)-2-((6-(trifluoromethyl)pyridin-3-yl)methyl)-2,4,5,6-tetrahydrocyclopenta[c]pyrazol-4-yl)amino)-7,8-dihydropteridin-6(5H)-one]	≥ 5000 nM
Cc1nc(NCc2cnn(Cc3ccc(C(F)(F)F)nc3)c2)nc2c1NC(=O)[C@H]([C@H](C)OC(C)(C)C)N2C [Compound 742, (S)-7-((S)-1-(tert-butoxy)ethyl)-4,8-dimethyl-2-(((1-((6-(trifluoromethyl)pyridin-3-yl)methyl)-1H-pyrazol-4-yl)methyl)amino)-7,8-dihydropteridin-6(5H)-one]	1000 to 5000 nM
[2H]C([2H])(O)c1nc(NCc2cnn(Cc3ccc(C(F)(F)F)nc3)c2)nc2c1NC(=O)[C@H](C)N2C [Compound 493, (7S)-4-(hydroxymethyl-d2)-7,8-dimethyl-2-(((1-((6-(trifluoromethyl)pyridin-3-yl)methyl)-1H-pyrazol-4-yl)methyl)amino)-7,8-dihydropteridin-6(5H)-one]	1000 to 5000 nM
Cc1nc(N[C@H]2C[C@H](NC(=O)Cn3ccc(C(F)(F)F)n3)C2)nc2c1NC(=O)[C@H](C(C)C)N2C [Compound 554, N-(trans-3-(((S)-7-isopropyl-4,8-dimethyl-6-oxo-5,6,7,8-tetrahydropteridin-2-yl)amino)cyclobutyl)-2-(3-(trifluoromethyl)-1H-pyrazol-1-yl)acetamide]	1000 to 5000 nM
COc1ccc(O[C@H]2C[C@H](Nc3nc(C)c4c(n3)N(C)[C@@H](C)C(=O)N4)C2)c(F)c1 [Compound 354, (7S)-2-((trans-3-(2-fluoro-4-methoxyphenoxy)cyclobutyl)amino)-4,7,8-trimethyl-7,8-dihydropteridin-6(5H)-one]	1000 to 5000 nM
COCC1(C)C(=O)Nc2c(C)nc(NC3CN(C(=O)c4cc(F)c(F)c(F)c4)C3)nc2N1C (stereo not shown) [Compound 721, 7-(methoxymethyl)-4,7,8-trimethyl-2-((1-(3,4,5-trifluorobenzoyl)azetidin-3-yl)amino)-7,8-dihydropteridin-6(5H)-one]	1000 to 5000 nM
COc1ccc(N[C@H]2C[C@@H](Nc3nc(C)c4c(n3)N(C)[C@@H](C(C)C)C(=O)N4)C2)nc1 [Compound 733, (S)-7-isopropyl-2-((cis-3-((5-methoxypyridin-2-yl)amino)cyclobutyl)amino)-4,8-dimethyl-7,8-dihydropteridin-6(5H)-one]	≥ 5000 nM
Cc1nc(NCc2ncn(Cc3ccc(OC(F)(F)F)cc3)n2)nc2c1NC(=O)[C@H](C(C)C)N2C [Compound 489, (S)-7-isopropyl-4,8-dimethyl-2-(((1-(4-(trifluoromethoxy)benzyl)-1H-1,2,4-triazol-3-yl)methyl)amino)-7,8-dihydropteridin-6(5H)-one]	≥ 5000 nM
Cc1nc(NC2CC2COc2ccccc2)nc2c1NC(=O)[C@H](C)N2C (stereo partly drawn) [Compound 278, (7S)-4,7,8-trimethyl-2-((2-(phenoxymethyl)cyclopropyl)-amino)-7,8-dihydropteridin-6(5H)-one]	1000 to 5000 nM
Cc1nc(N[C@@H]2CCc3nn(Cc4ccc(C(F)(F)F)nc4)cc32)nc2c1NC(=O)[C@H](C)N2C [Compound 547, (7S)-4,7,8-trimethyl-2-(((R)-2-((6-(trifluoromethyl)pyridin-3-yl)methyl)-2,4,5,6-tetrahydrocyclopenta[c]pyrazol-4-yl)amino)-7,8-dihydropteridin-6(5H)-one]	1000 to 5000 nM
Cc1nc(NC2CN(C(=O)c3cnc(Cl)s3)C2)nc2c1NC(=O)[C@H](C(C)C)N2C [Compound 633, (S)-2-((1-(2-chlorothiazole-5-carbonyl)azetidin-3-yl)amino)-7-isopropyl-4,8-dimethyl-7,8-dihydropteridin-6(5H)-one]	1000 to 5000 nM
Cc1nc(NC2CN(C(=O)c3cocn3)C2)nc2c1NC(=O)[C@H](C(C)C)N2C [Compound 605, (S)-7-isopropyl-4,8-dimethyl-2-((1-(oxazole-4-carbonyl)azetidin-3-yl)amino)-7,8-dihydropteridin-6(5H)-one]	≥ 5000 nM
Cc1nc(N[C@H]2C[C@@H](NC(=O)Nc3ccc(Cl)nc3)C2)nc2c1NC(=O)[C@H](C)N2C [Compound 462, 1-(6-chloropyridin-3-yl)-3-(cis-3-(((S)-4,7,8-trimethyl-6-oxo-5,6,7,8-tetrahydropteridin-2-yl)amino)cyclobutyl)urea]	1000 to 5000 nM

Now from value to molecule:

IC50	SMILES
< 300 nM	Cc1nc(N[C@H]2C[C@@H](COc3cncc(C(F)(F)F)c3)C2)nc2c1NC(=O)[C@H](C)N2C [Compound 363, (7S)-4,7,8-trimethyl-2-((cis-3-(((5-(trifluoromethyl)pyridin-3-yl)oxy)methyl)cyclobutyl)amino)-7,8-dihydropteridin-6(5H)-one]
300 to 1000 nM	Cc1nc(NCc2cnn(C[C@H](O)c3ccc(F)cc3)c2)nc2c1NC(=O)[C@H](C)N2C [Compound 132, (7S)-2-[[1-[(2R)-2-(4-fluorophenyl)-2-hydroxy-ethyl]pyrazol-4-yl]methylamino]-4,7,8-trimethyl-5,7-dihydropteridin-6-one]
< 300 nM	COC1(C2C(=O)Nc3c(C)nc(NCc4cnn(Cc5cc(C(F)(F)F)nn5C)c4)nc3N2C)CCC1 (stereo not shown) [Compound 670, 7-(1-methoxycyclobutyl)-4,8-dimethyl-2-(((1-((1-methyl-3-(trifluoromethyl)-1H-pyrazol-5-yl)methyl)-1H-pyrazol-4-yl)methyl)amino)-7,8-dihydropteridin-6(5H)-one]
< 300 nM	Cc1nc(NCc2cnn(CC3CCC(F)(F)CC3)c2)nc2c1NC(=O)[C@H](C)N2C [Compound 58, (7S)-2-(((1-((4,4-difluorocyclohexyl)methyl)-1H-pyrazol-4-yl)methyl)amino)-4,7,8-trimethyl-7,8-dihydropteridin-6(5H)-one]
< 300 nM	Cc1nc(NCc2cnn(Cc3cncc(C(F)(F)F)c3)c2)nc2c1NC(=O)[C@H](C)N2C [Compound 206, (7S)-4,7,8-trimethyl-2-(((1-((5-(trifluoromethyl)pyridin-3-yl)methyl)-1H-pyrazol-4-yl)methyl)amino)-7,8-dihydropteridin-6(5H)-one]
< 300 nM	Cc1nc(NCc2cn(Cc3cc(F)c(F)c(F)c3)nn2)nc2c1NC(=O)[C@H](C(C)C)N2C [Compound 452, (S)-7-isopropyl-4,8-dimethyl-2-(((1-(3,4,5-trifluorobenzyl)-1H-1,2,3-triazol-4-yl)methyl)amino)-7,8-dihydropteridin-6(5H)-one]
< 300 nM	CCN1C(=O)[C@H](CCO)N(CC)c2nc(NCc3cnn(Cc4ccc(F)cc4)c3)ncc21 [Compound 38, (7S)-5,8-diethyl-2-(((1-(4-fluorobenzyl)-1H-pyrazol-4-yl)methyl)amino)-7-(2-hydroxyethyl)-7,8-dihydropteridin-6(5H)-one]
< 300 nM	CCN1C(=O)[C@](C)(CC)N(CC)c2nc(NCc3cnn(Cc4cc(F)c(F)c(F)c4)c3)ncc21 [Compound 35, (7S)-5,7,8-triethyl-7-methyl-2-(((1-(3,4,5-trifluorobenzyl)-1H-pyrazol-4-yl)methyl)amino)-7,8-dihydropteridin-6(5H)-one]
300 to 1000 nM	Cc1nc(NC2CN(C(=O)c3ccc(F)cc3)C2)nc2c1NC(=O)[C@H](C(C)C)N2C [Compound 548, (S)-2-((1-(4-fluorobenzoyl)azetidin-3-yl)amino)-7-isopropyl-4,8-dimethyl-7,8-dihydropteridin-6(5H)-one]
< 300 nM	Cc1cc(F)ccc1Cn1cc(CNc2nc(C)c3c(n2)N(C)[C@@H](C)C(=O)N3)cn1 [Compound 66, (7S)-2-(((1-(4-fluoro-2-methylbenzyl)-1H-pyrazol-4-yl)methyl)amino)-4,7,8-trimethyl-7,8-dihydropteridin-6(5H)-one]

Same assay, conditions: Homo sapiens, COLO 205, 5 h, R-isomer at C2 (corresponding to C2 S-isomer); Colo 205 TCF/LEF luciferase reporter, 5 h; read-out: TCF reporter Colo205 IC50

IC50	SMILES
< 300 nM	COc1c(F)cc(Cn2cc(CNc3nc(C)c4c(n3)N(C)[C@H](C)C(=O)N4)cn2)cc1F [Compound I-1205]
1000 to 5000 nM	Cc1nc(NCc2cnn(Cc3ccncc3C(F)(F)F)c2)nc2c1NC(=O)[C@@H](C)N2C [Compound I-1637]
1000 to 5000 nM	Cc1cc(F)ncc1Cn1cc(CNc2nc(C)c3c(n2)N(C)[C@H](C(C)C)C(=O)N3)cn1 [Compound I-1643]
